Measurements published in PMC5779714, “Metallochaperone UreG serves as a new target for design of urease inhibitor: A novel strategy for development of antimicrobials” (PLoS Biology, 2018).
Where two headings read alike, the source gives them in different places.

Biological target: UreG (Helicobacter pylori, UniProt Q09066)
Experiment: biochemical
Assay type: binding, H. pylori
Conditions: for ΔTm at 50 µM: read-out: thermal shift on the melting temperature of UreG
[1] = UreG + compound 50μM, Temperature 30.19
[2] = UreG + compound 50μM, Temperature 30.56
[3] = UreG + compound 50μM, Temperature 30.94
[4] = UreG + compound 50μM, Temperature 31.33
[5] = UreG + compound 50μM, Temperature 31.72
[6] = UreG + compound 50μM, Temperature 32.09
[7] = UreG + compound 50μM, Temperature 32.47
[8] = UreG + compound 50μM, Temperature 32.85
[9] = UreG + compound 50μM, Temperature 33.30
[10] = UreG + compound 50μM, Temperature 33.65
[11] = UreG + compound 50μM, Temperature 34.08
[12] = UreG + compound 50μM, Temperature 34.47
[13] = UreG + compound 50μM, Temperature 34.84
[14] = UreG + compound 50μM, Temperature 35.21
[15] = UreG + compound 50μM, Temperature 35.58
[16] = UreG + compound 50μM, Temperature 35.96
[17] = UreG + compound 50μM, Temperature 36.34
[18] = UreG + compound 50μM, Temperature 36.71
[19] = UreG + compound 50μM, Temperature 37.48
[20] = UreG + compound 50μM, Temperature 37.86
[21] = UreG + compound 50μM, Temperature 38.23
[22] = UreG + compound 50μM, Temperature 38.61
[23] = UreG + compound 50μM, Temperature 38.99
[24] = UreG + compound 50μM, Temperature 39.38
[25] = UreG + compound 50μM, Temperature 39.76
[26] = UreG + compound 50μM, Temperature 40.14
[27] = UreG + compound 50μM, Temperature 40.52
[28] = UreG + compound 50μM, Temperature 40.91
[29] = UreG + compound 50μM, Temperature 41.29
[30] = UreG + compound 50μM, Temperature 41.66
[31] = UreG + compound 50μM, Temperature 42.04
[32] = UreG + compound 50μM, Temperature 42.42
[33] = UreG + compound 50μM, Temperature 42.81
[34] = UreG + compound 50μM, Temperature 43.18
[35] = UreG + compound 50μM, Temperature 43.56
[36] = UreG + compound 50μM, Temperature 43.94
[37] = UreG + compound 50μM, Temperature 44.33
[38] = UreG + compound 50μM, Temperature 44.71
[39] = UreG + compound 50μM, Temperature 45.09
[40] = UreG + compound 50μM, Temperature 45.47
[41] = UreG + compound 50μM, Temperature 45.85
[42] = UreG + compound 50μM, Temperature 46.23
[43] = UreG + compound 50μM, Temperature 46.60
[44] = UreG + compound 50μM, Temperature 46.99
[45] = UreG + compound 50μM, Temperature 47.37
[46] = UreG + compound 50μM, Temperature 47.75
[47] = UreG + compound 50μM, Temperature 48.13
[48] = UreG + compound 50μM, Temperature 48.52
[49] = UreG + compound 50μM, Temperature 48.89
[50] = UreG + compound 50μM, Temperature 49.28
[51] = UreG + compound 50μM, Temperature 49.65
[52] = UreG + compound 50μM, Temperature 50.04
[53] = UreG + compound 50μM, Temperature 50.42
[54] = UreG + compound 50μM, Temperature 50.80
[55] = UreG + compound 50μM, Temperature 51.19
[56] = UreG + compound 50μM, Temperature 51.56
[57] = UreG + compound 50μM, Temperature 51.96
[58] = UreG + compound 50μM, Temperature 52.34
[59] = UreG + compound 50μM, Temperature 52.72
[60] = UreG + compound 50μM, Temperature 53.10
[61] = UreG + compound 50μM, Temperature 53.48
[62] = UreG + compound 50μM, Temperature 53.86
[63] = UreG + compound 50μM, Temperature 54.24
[64] = UreG + compound 50μM, Temperature 54.62
[65] = UreG + compound 50μM, Temperature 55.00
[66] = UreG + compound 50μM, Temperature 55.38
[67] = UreG + compound 50μM, Temperature 55.77

Chain of UreG (Q09066 whole entry): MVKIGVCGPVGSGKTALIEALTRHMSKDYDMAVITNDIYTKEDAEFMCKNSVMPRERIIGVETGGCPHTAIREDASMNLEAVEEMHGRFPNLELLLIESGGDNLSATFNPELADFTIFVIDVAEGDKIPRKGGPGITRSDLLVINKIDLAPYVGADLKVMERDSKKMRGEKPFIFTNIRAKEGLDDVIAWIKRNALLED

O=C(Cn1c2ccccc2c(=O)c2ccccc21)N/N=C/c1cc([N+](=O)[O-])ccc1N1CCCCCC1 [cmpd8]
Normalized fluo: 1.54 | Normalized fluo [1]: 6.82 | Normalized fluo [2]: 5.74 | Normalized fluo [3]: 4.76 | Normalized fluo [4]: 4.03 | Normalized fluo [5]: 3.29 | Normalized fluo [6]: 2.61 | Normalized fluo [7]: 2.02 | Normalized fluo [8]: 1.65 | Normalized fluo [9]: 1.24 | Normalized fluo [10]: 0.72 | Normalized fluo [11]: 0.51 | Normalized fluo [12]: 0.31 | Normalized fluo [13]: 0.0654 | Normalized fluo [14]: 0.00 | Normalized fluo [15]: 0.22 | Normalized fluo [16]: 0.34 | Normalized fluo [17]: 0.64 | Normalized fluo [18]: 0.86 | Normalized fluo [19]: 2.00 | Normalized fluo [20]: 2.40 | Normalized fluo [21]: 3.05 | Normalized fluo [22]: 3.75 | Normalized fluo [23]: 4.78 | Normalized fluo [24]: 5.95 | Normalized fluo [25]: 7.06 | Normalized fluo [26]: 8.20 | Normalized fluo [27]: 9.33 | Normalized fluo [28]: 10.80 | Normalized fluo [29]: 12.52 | Normalized fluo [30]: 14.35 | Normalized fluo [31]: 16.04 | Normalized fluo [32]: 18.03 | Normalized fluo [33]: 19.94 | Normalized fluo [34]: 21.90 | Normalized fluo [35]: 24.29 | Normalized fluo [36]: 26.66 | Normalized fluo [37]: 29.44 | Normalized fluo [38]: 32.01 | Normalized fluo [39]: 34.92 | Normalized fluo [40]: 37.82 | Normalized fluo [41]: 40.91 | Normalized fluo [42]: 43.67 | Normalized fluo [43]: 46.80 | Normalized fluo [44]: 50.61 | Normalized fluo [45]: 53.88 | Normalized fluo [46]: 56.90 | Normalized fluo [47]: 60.37 | Normalized fluo [48]: 63.48 | Normalized fluo [49]: 67.05 | Normalized fluo [50]: 70.49 | Normalized fluo [51]: 73.41 | Normalized fluo [52]: 76.19 | Normalized fluo [53]: 79.38 | Normalized fluo [54]: 82.32 | Normalized fluo [55]: 85.00 | Normalized fluo [56]: 87.48 | Normalized fluo [57]: 89.89 | Normalized fluo [58]: 91.67 | Normalized fluo [59]: 93.50 | Normalized fluo [60]: 95.00 | Normalized fluo [61]: 96.08 | Normalized fluo [62]: 97.41 | Normalized fluo [63]: 98.54 | Normalized fluo [64]: 99.22 | Normalized fluo [65]: 99.67 | Normalized fluo [66]: 100.00 | Normalized fluo [67]: 99.66 | ΔTm at 50 µM: ~2.5 °C

Cc1cccc(N2CCN(C(=O)c3cc(S(=O)(=O)N(C)C)ccc3N3CCCC3)CC2)c1C [cmpd4]
Normalized fluo: 0.61 | Normalized fluo [1]: 4.76 | Normalized fluo [2]: 4.12 | Normalized fluo [3]: 3.54 | Normalized fluo [4]: 2.90 | Normalized fluo [5]: 2.50 | Normalized fluo [6]: 2.10 | Normalized fluo [7]: 1.61 | Normalized fluo [8]: 1.32 | Normalized fluo [9]: 0.93 | Normalized fluo [10]: 0.64 | Normalized fluo [11]: 0.41 | Normalized fluo [12]: 0.19 | Normalized fluo [13]: 0.16 | Normalized fluo [14]: 0.06 | Normalized fluo [15]: 3.2e-7 | Normalized fluo [16]: 0.09 | Normalized fluo [17]: 0.11 | Normalized fluo [18]: 0.29 | Normalized fluo [19]: 0.97 | Normalized fluo [20]: 1.58 | Normalized fluo [21]: 2.12 | Normalized fluo [22]: 2.84 | Normalized fluo [23]: 3.60 | Normalized fluo [24]: 4.60 | Normalized fluo [25]: 5.58 | Normalized fluo [26]: 6.65 | Normalized fluo [27]: 7.99 | Normalized fluo [28]: 9.53 | Normalized fluo [29]: 11.09 | Normalized fluo [30]: 12.65 | Normalized fluo [31]: 14.59 | Normalized fluo [32]: 16.59 | Normalized fluo [33]: 18.72 | Normalized fluo [34]: 21.02 | Normalized fluo [35]: 23.41 | Normalized fluo [36]: 25.90 | Normalized fluo [37]: 28.66 | Normalized fluo [38]: 31.01 | Normalized fluo [39]: 34.36 | Normalized fluo [40]: 37.25 | Normalized fluo [41]: 40.25 | Normalized fluo [42]: 43.53 | Normalized fluo [43]: 46.72 | Normalized fluo [44]: 50.00 | Normalized fluo [45]: 53.25 | Normalized fluo [46]: 56.55 | Normalized fluo [47]: 59.79 | Normalized fluo [48]: 62.98 | Normalized fluo [49]: 66.11 | Normalized fluo [50]: 69.46 | Normalized fluo [51]: 72.30 | Normalized fluo [52]: 75.42 | Normalized fluo [53]: 78.05 | Normalized fluo [54]: 80.94 | Normalized fluo [55]: 83.37 | Normalized fluo [56]: 85.74 | Normalized fluo [57]: 88.30 | Normalized fluo [58]: 90.21 | Normalized fluo [59]: 92.02 | Normalized fluo [60]: 93.58 | Normalized fluo [61]: 95.15 | Normalized fluo [62]: 96.31 | Normalized fluo [63]: 97.30 | Normalized fluo [64]: 98.18 | Normalized fluo [65]: 98.87 | Normalized fluo [66]: 99.53 | Normalized fluo [67]: 100.00 | ΔTm at 50 µM: ~2.5 °C
